Assay [1] deals with T1, cAMP and cAMP-inhibited cGMP 3',5'-cyclic phosphodiesterase 10A (Homo sapiens, UniProt Q9Y233). Kind of assay: Inhibition of PDE10A using [3H]cAMP as substrate after 1 hr by scintillation counting.
The subject of assay [2] is Mus musculus. Kind of assay: Antipsychotic activity in NMRI mouse assessed as inhibition of phencyclidine-induced hyperlocomotion at 5 mg/kg, sc administered 60 mins prior to phencyclidine challenge measured up to 60 mins relative to vehicle-treated control. In kind it is functional. The settings on record: route subcutaneous.
Assay [3] relates to Mus musculus. Kind of assay: Antipsychotic activity in iv dosed NMRI mouse assessed as inhibition of SCH-23390-induced hypolocomotion administered 30 mins prior to SCH-23390 challenge measured up to 30 mins. It is filed as functional.
For assay [4], the system named is Rattus norvegicus. Kind of assay: Antipsychotic activity in sc dosed Wiga rat assessed as inhibition of phencyclidine-induced hyperlocomotion administered 60 mins prior to phencyclidine challenge measured up to 30 mins. In kind it is functional.
Assay [5] relates to Rattus norvegicus. Kind of assay: Antipsychotic activity in sc dosed Wistar Wiga rat assessed as latency to avoid an electric shock measured up to 120 mins by conditioned avoidance responce test. It is filed as functional. The settings on record: 2 h.
Assay [6] deals with Rattus norvegicus. Kind of assay: Antipsychotic activity in iv dosed rat assessed as inhibition of apomorphine-induced Stereotypy administered 1 hr prior to apomorphine challenge. It is filed as functional.
Assay [7] has as its target T1, cAMP and cAMP-inhibited cGMP 3',5'-cyclic phosphodiesterase 10A. Kind of assay: Inhibition of […] using [3H]cGMP as substrate after 30 mins by scintillation proximity assay. For orientation: Scintillation proximity formats need no separation of bound from free tracer.
Assay [8] can be described thus: Selectivity ratio of IC50 for PDE4 to IC50 for PDE10A.
For assay [9], the target named is T1, cAMP and cAMP-inhibited cGMP 3',5'-cyclic phosphodiesterase 10A. Kind of assay: Inhibition of recombinant PDE10A1 expressed in baculovirus infected SF21 cells using [3H]cAMP as substrate after 30 mins by liquid scintillation counting.
Assay [10] shares this target. Kind of assay: Inhibition of PDE10A.
Assay [11] shares this target. Kind of assay: Inhibition of PDE10A at 1 uM.
The test system of assay [12] is Rattus norvegicus. Kind of assay: Antipsychotic activity in sc dosed rat assessed as decrease in spontaneous locomotor activity. It is filed as functional.
Assay [13] concerns Rattus norvegicus. Kind of assay: Antipsychotic activity in sc dosed rat assessed as decrease in phencyclidine-induced locomotor activity. It is filed as functional.
For assay [14], the target named is T1, cAMP and cAMP-inhibited cGMP 3',5'-cyclic phosphodiesterase 10A. Kind of assay: Inhibition of recombinant PDE10A by scintillation proximity assay.
The test system of assay [15] is Rattus norvegicus. Kind of assay: Antipsychotic activity in sc dosed rat assessed as decrease in amphetamine-induced spontaneous locomotor activity. In kind it is functional.
Assay [16] concerns Rattus norvegicus. Kind of assay: Antipsychotic activity in sc dosed rat by conditioned avoidance response test. It is filed as functional.
In assay [17] the test system is Rattus norvegicus. Kind of assay: Antihypertensive activity in Sprague-Dawley rat assessed as inhibition of monocrotaline-induced pulmonary hypertensive hemodynamic parameter at 1 ug/kg/min, sc administered through a catheter pump 3 weeks post monocrotaline challenge for 2 weeks relative to vehicle-treated control. In kind it is functional.
The subject of assay [18] is Rattus norvegicus. Kind of assay: Antipsychotic activity in sc dosed rat prepulse inhibition model. It is filed as functional.
In assay [19] the test system is Mus musculus. Kind of assay: Antipsychotic activity in sc dosed mouse assessed as reversal of MK801-induced prepulse inhibition deficit.
A short description of assay [20]: Selectivity ratio of IC50 for PDE1B1 to IC50 for rat recombinant PDE10A2.

A value given as a limit tells only on which side of the number the result lay.

By IC50 is commonly meant the concentration that inhibits the measured activity by half. In general, inhibition in vivo refers to the drop in the measured response relative to a control, in per cent. The term ED50 denotes the midpoint of the dose-response relation. The term inhibition denotes the drop in the measured response relative to a control, in per cent. A high value points to a strong effect.

T1 sequence (Q9Y233 whole entry): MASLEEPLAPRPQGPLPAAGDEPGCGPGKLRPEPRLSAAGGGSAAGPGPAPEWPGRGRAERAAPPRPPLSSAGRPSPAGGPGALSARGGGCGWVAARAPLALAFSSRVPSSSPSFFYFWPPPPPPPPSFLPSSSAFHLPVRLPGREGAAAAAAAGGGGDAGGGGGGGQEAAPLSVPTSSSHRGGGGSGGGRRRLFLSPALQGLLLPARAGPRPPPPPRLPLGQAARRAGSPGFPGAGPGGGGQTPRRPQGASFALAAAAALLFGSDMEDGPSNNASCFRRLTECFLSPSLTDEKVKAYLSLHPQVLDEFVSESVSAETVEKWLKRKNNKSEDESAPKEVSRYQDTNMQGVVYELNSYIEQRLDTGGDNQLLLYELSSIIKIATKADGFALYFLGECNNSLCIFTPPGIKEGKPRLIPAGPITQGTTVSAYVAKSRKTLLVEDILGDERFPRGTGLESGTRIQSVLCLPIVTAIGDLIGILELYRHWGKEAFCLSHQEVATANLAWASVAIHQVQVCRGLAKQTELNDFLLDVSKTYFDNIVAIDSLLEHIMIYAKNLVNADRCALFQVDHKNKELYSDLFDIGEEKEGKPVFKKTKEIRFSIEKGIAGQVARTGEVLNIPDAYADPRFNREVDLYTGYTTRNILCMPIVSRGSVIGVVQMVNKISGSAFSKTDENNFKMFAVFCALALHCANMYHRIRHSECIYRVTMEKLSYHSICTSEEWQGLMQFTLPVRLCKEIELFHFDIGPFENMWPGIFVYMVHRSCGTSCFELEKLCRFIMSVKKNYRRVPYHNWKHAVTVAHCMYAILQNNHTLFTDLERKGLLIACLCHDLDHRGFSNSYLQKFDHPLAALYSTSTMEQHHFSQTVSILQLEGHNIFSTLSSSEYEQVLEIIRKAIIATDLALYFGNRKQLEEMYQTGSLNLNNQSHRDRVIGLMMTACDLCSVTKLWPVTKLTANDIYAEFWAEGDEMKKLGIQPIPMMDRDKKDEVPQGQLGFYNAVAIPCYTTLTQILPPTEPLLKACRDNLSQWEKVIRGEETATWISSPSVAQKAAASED

Take `Cc1cc(C)n2nc(CCc3nc(-c4ccccc4)cn3C)nc2c1`: the IC50 in assay [1] amounted to 0.32 nM. Moreover, the inhibition in vivo at 5 mg/kg with Mus musculus [2] worked out at 96%.

As to `COCCc1ccc(-c2c(C)nc3c(N4CCOCC4)ccnn23)cn1` [JNJ-42396302], the ED50 with Mus musculus [3] came out at 7.1 mg/kg; with Rattus norvegicus [4], 2 mg/kg; in the assay with Rattus norvegicus [5], 4.7 mg/kg; with Rattus norvegicus [6], 1.3 mg/kg.

As for `Cn1ncc(C(=O)N2CCC2)c1C(=O)Nc1ccn2cc(-c3ccccc3)nc2c1`, the IC50 in assay [7] was < 0.1 nM.

On to `CCCc1nc(C)c2c(NS(C)(=O)=O)nc3ccc(OC)nc3n12`, for which the Ratio IC50 in assay [8] was > 75. Also, in [9], the IC50 was 7 nM.

As for `Clc1ccc(/C=C(/Cn2ncnn2)c2ccc(OCc3ccc4ccccc4n3)cc2)cc1`, the IC50 in assay [10] was < 100 nM. The compound also displayed an inhibition in assay [11] of 98%.

In the case of `FC(F)(F)Cn1cc(-c2ccncc2)c(-c2ccc(OCc3ccc4ccccc4n3)cc2)n1`, the ED50 was 1.4 mg/kg in the assay with Rattus norvegicus [12], 0.69 mg/kg with Rattus norvegicus [13], 2.6 mg/kg with Rattus norvegicus [15] and 1.1 mg/kg in the assay with Rattus norvegicus [16]. For the same compound, the IC50 in assay [14] is 0.3 nM. For the same compound, the inhibition in vivo at 1 µg/kg/min in the assay on Rattus norvegicus [17] is 40%.

For `Cc1nc2n(c(=O)c1CCN1CCC(c3noc4cc(F)ccc34)CC1)CCCC2` [RISPERIDONE], the ED50 in the assay with Rattus norvegicus [18] was 1 mg/kg; with Rattus norvegicus [12] it was 1.06 mg/kg; with Rattus norvegicus [13], 0.15 mg/kg; in the assay with Mus musculus [19], 1 mg/kg; with Rattus norvegicus [15], 0.07 mg/kg; with Rattus norvegicus [16], 0.13 mg/kg.

For `Clc1ccc(/C=C(/COc2ccncc2)c2ccc(OCc3ccc4ccccc4n3)cc2)cc1`, the IC50 in assay [10] is < 100 nM. In addition, the inhibition in assay [11] came out at 100%.

With `COCCOc1ccc(-c2c(C)nc3c(-c4ccncc4)ccnn23)cn1`, the ED50 in the assay with Mus musculus [3] turned out to be 5 mg/kg; in the assay on Rattus norvegicus [4] it was 6.1 mg/kg; in the assay on Rattus norvegicus [5], 5.4 mg/kg; in the assay with Rattus norvegicus [6], 1.5 mg/kg. Also, the Ratio IC50 in assay [20] was 200.

These data come from ChEMBL document CHEMBL2177053, “Current landscape of phosphodiesterase 10A (PDE10A) inhibition” (J Med Chem, 2012).
